Measured values: patent publication US20240002441A1, “PEPTIDES AND USES THEREOF IN MODULATION OF AMYLOID-BETA PROTEIN DEGRADING PROTEASES” (priority 2020, published 2024)

What was measured:
NEP = target: T1, NEP (Homo sapiens, UniProt P08473); assay: Cleavage of synthetic Aβ40 by NEP, LCMS (Example 7); assay type: biochemical; details: peptide 9 μM
T1 construct: purchased R & D systems 1182-ZNC-010
Experimental: Synthetic Aβ40 (0.10 μg/μL) was added to a reaction mixture containing NEP (0.05 ng/μL) pre-incubated with SEQ ID NO:2 or scrambled control (9 μM) for 1 h at 37° C. Synthetic Aβ42 (0.05 μg/μL) was added to a reaction mixture containing NEP (0.15 ng/μL) preincubated with either scrambled control or SEQ ID NO:2 (9 μM) for 1 h at 37° C. Samples containing enzyme alone had only NEP buffer (Table 2). The cleavage reaction was allowed to continue in a thermomixer at 37° C. Aliquots of equal volume were taken over 24 h. Aliquots were immediately acidified with 0.1% trifluoroacetic acid (TFA) to terminate enzyme activity and snap frozen in dry ice. Samples were stored at −80° C. until analysed by LCMS.
(§1) Samples were analysed by LC-MS/MS using a quadrupole TOF mass spectrometer (MicroTOFq, Bruker Daltonics, Bremen, Germany) coupled online with a 1200 series nano-HPLC (Agilent technologies, Santa Clara, CA, USA). Samples were injected onto a zorbax 300SB reversed phase trap column with 95% solvent A (0.1% formic acid) at a flow rate of 10 μL/minute. The peptides were eluted over a 10-min gradient to 70% solvent B (80% acetonitrile, 0.1% formic acid) and separated on a 15-cm, 75-μmID zorbax 300SB nanocolumn. The eluent was nebulised and ionised using the Bruker nano-ESI source with a capillary voltage of 4500 V, dry gas at 180° C., flow rate of 5 L/minute and nebuliser gas pressure at 300 mbar. The MS acquisition was in selected ion monitoring mode after selected ion extraction of the MS spectra. Prior to analysis, the qTOF mass spectrometer was calibrated using a 1:50 dilution tuning mix (Agilent technologies, Santa Clara, CA, USA). Data from MS run were processed in Skyline version 19.1.0.193 (Uni. Of Washington, WA, USA) to perform ion chromatogram extractions and peak integrations.

ACE2 = target: T2, ACE2 (Homo sapiens, UniProt Q9BYF1); assay: Cleavage of synthetic Ang II to Ang 1-7 by ACE2, LCMS (Example 8); assay type: biochemical; details: rhACE2 0.1 ng/μL, peptide 1.7 μM, Ang II 0.02 μg/μL
T2 construct: purchased R & D systems 933-ZN-010
Experimental: as §1
rhACE2 (0.1 ng/μL) was incubated with SEQ ID NO:2 (1.7 μM) for 1 h at 37° C. Ang II (0.02 μg/μL) was then added to the reaction mixture. Aliquots of equal volume were collected at 0, 3, 6 and 24 h. […] The samples were analysed by LC-MS/MS using the method in Example 7.

5×FAD transgenic mice = assay: 5×FAD transgenic mouse model of Alzheimer's Disease (Example 15); assay type: in vivo
Experimental: All animal experiments were conducted in strict accordance with the Australian Code of Practice for the Care and Use of Animals for Scientific Purposes. Local approval was obtained from The University of Queensland's Animal Ethics Committee. All wild-type (WT) and transgenic mice (5×FAD tg) used were from the same litters to act as appropriate littermate controls. Thirty-four 2.5-3-month-old female and twenty-five 2.5-3-month-old male mice were used in this study. Animals were housed in groups of 3-5 animals per cage and maintained on a 12 hr light-dark cycle. Food and water were provided ad libitum.
All testing was conducted between 8 AM-6 PM, at approximately the same time each day. Prior to commencing any behavioural testing, mice were habituated to handling and handler smell to minimize handling-related stress. Each mouse was handled daily by the experimenter conducting the behavioural tasks for 30-s to 1-min each day. Handling involved picking up the mouse (by the base of the tail) from the home cage and placing in the palm of a gloved hand. This process was repeated daily, at approximately the same time each day, for a total of 8 days prior to testing. The bedding of the animals' home cage was not changed 2-days prior habituation to handling and for the duration of the behavioural tests. […]
The Active Place Avoidance (APA) task assessing longer-term spatial learning and memory was conducted on all mice as previously described (Willis E F, Bartlett P F, Vukovic J. Protocol for Short- and Longer-term Spatial Learning and Memory in Mice. Front Behav Neurosci. 2017; 11:197. https://doi:10.3389/fnbeh.2017.00197). The APA arena (Bio-Signal Group, NY, USA) consisted of a 77 cm diameter metal grid floor fenced by a 32 cm high Perspex clear circular boundary. The elevated arena sits directly below a digital video camera (Point Gray, USA) and in the middle of the room with visual cues placed on all 4 of the room walls. The visual cues consisted of black and white symbols printed on A3-sized paper. Visual cues were randomly chosen and kept constant for the 5-days of testing, and a different set of visual cues were used for post-2A treatment testing. Room lighting was set at 62-63% white light and light intensity recordings were taken by placing the luxmeter in the centre of the arena before the start of each session and kept between 60-70 lux.
The arena was set to rotate clockwise (1 rpm). The shock zone where a brief electric shock (500 ms, 0.5 mA, track-dependent) is delivered through the grid floor, is set at a 270° (pre-2A treatment) or 90° (post-2A treatment) angle and width of 60°. […] Mice were to actively avoid this shock zone while the arena rotates clockwise.
The position of the mouse in the arena was tracked using an overhead camera linked to Tracker software (Bio-Signal Group). When the centre-point of the mouse entered the shock zone, as tracked by the overhead camera linked to the tracking software, it received an electric shock. During the trials, the researcher sat quietly behind a curtain, out of view of the arena. After the completion of a trial, each mouse was returned to the home cage and the metal grid, clear Perspex boundary and underlying floor were cleaned with 70% ethanol. All scat and urine were removed following the completion of the trial.
Peptide of SEQ ID NO. 2 was dissolved in dimethyl sulfoxide (DMSO), and subsequently diluted in Dulbecco's phosphate-buffered saline (DPBS; 10% DMSO final). Pre-treatment open field/activity monitor data was used as the pseudorandomisation parameter for assigning animals to treatment groups. At 12-14 weeks, male and female 5×FAD and WT littermates were intranasally administered either 10% DMSO in DPBS as vehicle treatment or SEQ ID NO. 2 in DPBS (1 mg/kg). Treatment commenced immediately after the completion of pre-treatment behavioural testing and was administered every other day for 1 month. Body weight was measured every second day prior to intranasal dosing. […]

T1 sequence (P08473 whole entry): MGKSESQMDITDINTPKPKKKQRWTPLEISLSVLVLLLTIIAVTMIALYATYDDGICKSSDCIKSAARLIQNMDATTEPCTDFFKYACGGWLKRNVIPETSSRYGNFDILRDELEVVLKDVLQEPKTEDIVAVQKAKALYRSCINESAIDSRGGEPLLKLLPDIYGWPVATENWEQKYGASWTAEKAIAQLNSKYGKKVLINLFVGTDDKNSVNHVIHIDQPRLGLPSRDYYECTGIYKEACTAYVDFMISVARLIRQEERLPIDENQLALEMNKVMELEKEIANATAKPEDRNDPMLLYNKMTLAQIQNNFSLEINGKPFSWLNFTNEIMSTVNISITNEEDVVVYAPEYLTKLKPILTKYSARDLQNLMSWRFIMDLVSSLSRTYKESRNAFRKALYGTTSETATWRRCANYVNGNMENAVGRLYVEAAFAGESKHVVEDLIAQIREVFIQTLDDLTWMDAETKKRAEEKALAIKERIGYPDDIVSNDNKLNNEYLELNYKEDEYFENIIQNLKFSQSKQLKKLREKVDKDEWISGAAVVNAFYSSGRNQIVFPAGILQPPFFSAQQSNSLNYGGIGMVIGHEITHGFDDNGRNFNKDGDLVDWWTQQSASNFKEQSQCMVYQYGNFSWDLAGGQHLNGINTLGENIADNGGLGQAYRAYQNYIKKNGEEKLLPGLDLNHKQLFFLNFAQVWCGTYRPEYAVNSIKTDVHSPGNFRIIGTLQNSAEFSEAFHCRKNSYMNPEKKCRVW
T2 sequence (Q9BYF1 18-805): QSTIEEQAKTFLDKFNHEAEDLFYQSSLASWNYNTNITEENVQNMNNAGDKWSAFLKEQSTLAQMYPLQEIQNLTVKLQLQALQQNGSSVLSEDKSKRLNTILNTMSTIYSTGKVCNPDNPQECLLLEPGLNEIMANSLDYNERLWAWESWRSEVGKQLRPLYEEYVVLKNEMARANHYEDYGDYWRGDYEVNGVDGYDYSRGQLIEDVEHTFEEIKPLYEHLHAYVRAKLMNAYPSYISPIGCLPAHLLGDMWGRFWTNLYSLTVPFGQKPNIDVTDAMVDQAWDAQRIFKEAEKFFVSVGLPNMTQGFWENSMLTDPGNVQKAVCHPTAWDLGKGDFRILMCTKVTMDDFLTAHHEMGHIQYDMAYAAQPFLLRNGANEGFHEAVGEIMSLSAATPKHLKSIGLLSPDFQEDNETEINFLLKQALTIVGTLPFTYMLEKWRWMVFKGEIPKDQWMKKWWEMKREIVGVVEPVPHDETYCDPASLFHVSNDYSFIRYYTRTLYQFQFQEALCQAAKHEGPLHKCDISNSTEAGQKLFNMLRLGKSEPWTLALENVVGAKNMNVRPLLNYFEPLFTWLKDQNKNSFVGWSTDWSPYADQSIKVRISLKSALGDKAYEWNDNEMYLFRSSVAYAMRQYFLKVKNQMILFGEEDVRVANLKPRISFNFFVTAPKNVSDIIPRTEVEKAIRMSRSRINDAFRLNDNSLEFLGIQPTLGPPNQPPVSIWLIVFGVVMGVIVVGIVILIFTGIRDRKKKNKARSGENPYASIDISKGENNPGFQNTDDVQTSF

## H-SLFELGKMIL-NH2 [SEQ ID NO:2, H2N-SLFELGKMIL-NH2]
NEP; Aβ40 cleavage
  decrease in Aβ1-21 peak area over 4-20 h: 7.5×10^7±1.3×10^7 arbitrary units
NEP; Aβ40 cleavage, 4 h
  levels of Aβ1-21 (peak area) at 4 h: 7.9×10^7±1.3×10^7 arbitrary units
NEP; Aβ40 cleavage, 24 h
  levels of Aβ1-21 (peak area) at 24 h: 4.1×10^6±4.8×10^5 arbitrary units
  peak area corresponding to Aβ1-12 after 24 h: 1.3×10^8±7.9×10^6 arbitrary units
NEP; NEP 0.05 ng/μL
  time at which breakdown of Aβ40 was complete: 4 h
NEP; NEP 0.05 ng/μL, Aβ40 0.10 μg/μL, 4 h
  amount of Aβ40 remaining after 4 h (peak area): 1.3×10^6±2.7×10^5 arbitrary units
NEP; 24 h
  amount of Aβ40 remaining after 24 h, SEQ ID NO:2 versus scrambled control: no significant difference
ACE2
  production of Ang 1-7: 165±12 % of ACE2 alone
ACE2; 24 h
  ACE2-mediated breakdown of Ang II over 24 h, decrease in peak area: 83±5 % of initial
5×FAD transgenic mice; Tg mice, peptide versus vehicle
  active place avoidance behaviour, 5-day post-treatment performance: improved avoidance behavior
5×FAD transgenic mice; Tg mice, western blotting
  IL-6 protein level in the cortex compared to Tg mice treated with vehicle: reduction
  TNF-α protein level in the cortex compared to Tg mice treated with vehicle: reduction
5×FAD transgenic mice; WT or Tg mice treated with peptide
  number of shocks in the APA task at day 5 of testing, post-treatment versus pre-treatment: significantly more
5×FAD transgenic mice; between groups
  frequency of entry to the novel arm in y-maze test, as % of entries to all other arms, pre-treatment compared with post-treatment: did not show significant difference
  number of shocks received post-treatment: not significantly different
5×FAD transgenic mice; each group of mice, pre- versus post-treatment
  time in the centre in the open field/activity test: not significantly different
